Where “and” joins values, the source holds several entries; their conditions need not be identical. Equal values may be shown once.
Conditions: Transpiration method

Oc1c(Cl)cccc1Cl [2,6-dichlorophenol]
Conditions | vapor or sublimation pressure [kPa]
298.5 K, Crystal | 0.0073
301.6 K, Crystal | 0.01
304.6 K, Crystal | 0.0137
307.4 K, Crystal | 0.0183
310.4 K, Crystal | 0.0245
313.4 K, Crystal | 0.0331
316.4 K, Crystal | 0.0437
319.4 K, Crystal | 0.0591
322.4 K, Crystal | 0.0774
325.4 K, Crystal | 0.1006
328.4 K, Crystal | 0.1312
331.3 K, Crystal | 0.1685
341.2 K, Liquid | 0.3444
344.7 K, Liquid | 0.4173
347.3 K, Liquid | 0.4838
350.3 K, Liquid | 0.5727
353.3 K, Liquid | 0.6745
356.3 K, Liquid | 0.7745
360.3 K, Liquid | 0.9734
363.3 K, Liquid | 1.143
366.3 K, Liquid | 1.315
371.4 K, Liquid | 1.664

Clc1c(Cl)c(Cl)c(Cl)c(Cl)c1Cl [hexachlorobenzene]
Crystal
Conditions | vapor or sublimation pressure [kPa]
358 K | 0.00144
362.9 K | 0.00216
368.9 K | 0.00373
373.1 K | 0.00519
377.8 K | 0.00771
382.9 K | 0.01123
389 K | 0.01836
392.8 K | 0.0238
397.9 K | 0.03341
402.8 K | 0.04901

Oc1cccc(Cl)c1 [3-chlorophenol]
Conditions | vapor or sublimation pressure [kPa]
275.3 K, Crystal | 0.00082
276.6 K, Crystal | 0.00095
278.3 K, Crystal | 0.00115
280.3 K, Crystal | 0.00149
283.2 K, Crystal | 0.00212
285.2 K, Crystal | 0.00262
288.3 K, Crystal | 0.00366
291.3 K, Crystal | 0.00509
294.3 K, Crystal | 0.00721
297.3 K, Crystal | 0.00999
300.3 K, Crystal | 0.01323
302.2 K, Crystal | 0.01626
306 K, Crystal | 0.02395
308.3 K, Liquid | 0.0294
311.1 K, Liquid | 0.0361
314.2 K, Liquid | 0.0455
317.2 K, Liquid | 0.058
320.3 K, Liquid | 0.073
323.2 K, Liquid | 0.0905
326.2 K, Liquid | 0.1116
329.2 K, Liquid | 0.1366
332.2 K, Liquid | 0.1669
335.2 K, Liquid | 0.2002

Oc1ccc(Cl)cc1Cl [2,4-dichlorophenol]
Conditions | vapor or sublimation pressure [kPa]
278.2 K, Crystal | 0.00175
283.3 K, Crystal | 0.00312
289.3 K, Crystal | 0.00626
294.4 K, Crystal | 0.01082
297.3 K, Crystal | 0.01464
300.4 K, Crystal | 0.02025
303.3 K, Crystal | 0.02801
306.3 K, Crystal | 0.03848
309.4 K, Crystal | 0.05208
312.4 K, Crystal | 0.06848
315.2 K, Crystal | 0.09034
317.2 K, Liquid | 0.1061
320.3 K, Liquid | 0.1326
323.2 K, Liquid | 0.1612
326.1 K, Liquid | 0.1933
329.2 K, Liquid | 0.2419
332.2 K, Liquid | 0.2831
335.2 K, Liquid | 0.3393
338.2 K, Liquid | 0.4027
341.2 K, Liquid | 0.4846
344.2 K, Liquid | 0.5835

Oc1ccc(Cl)cc1 [4-chlorophenol]
Conditions | vapor or sublimation pressure [kPa]
283.2 K, Crystal | 0.00132
288.2 K, Crystal | 0.00236
291.2 K, Crystal | 0.00332
294.2 K, Crystal | 0.00459
297.2 K, Crystal | 0.00622
300.2 K, Crystal | 0.00839
303.2 K, Crystal | 0.01163
306.2 K, Crystal | 0.01571
309.2 K, Crystal | 0.02076
311.2 K, Crystal | 0.02535
313.2 K, Crystal | 0.03092
318.2 K, Liquid | 0.0485
321.2 K, Liquid | 0.0615
324.2 K, Liquid | 0.0754
327.2 K, Liquid | 0.0926
330.2 K, Liquid | 0.1141
333.2 K, Liquid | 0.1388
336.2 K, Liquid | 0.1699
339.2 K, Liquid | 0.2022
342.2 K, Liquid | 0.2534
345.2 K, Liquid | 0.3058
348.2 K, Liquid | 0.3684
351.2 K, Liquid | 0.4409

Oc1cc(Cl)ccc1Cl [2,5-dichlorophenol]
Conditions | vapor or sublimation pressure [kPa]
294.3 K, Crystal | 0.0089
297.3 K, Crystal | 0.0122
300.4 K, Crystal | 0.0168
303.3 K, Crystal | 0.0223
306.3 K, Crystal | 0.0302
309.2 K, Crystal | 0.0399
312.2 K, Crystal | 0.0532
315.2 K, Crystal | 0.0708
318.3 K, Crystal | 0.0944
321.3 K, Crystal | 0.1257
324.4 K, Crystal | 0.1636
327.4 K, Crystal | 0.2133
333.3 K, Liquid | 0.3198
337.2 K, Liquid | 0.3996
340.2 K, Liquid | 0.4726
343.2 K, Liquid | 0.5513
346.2 K, Liquid | 0.6514
349.2 K, Liquid | 0.7643
352.2 K, Liquid | 0.894
355.2 K, Liquid | 1.048
358.1 K, Liquid | 1.204
361.2 K, Liquid | 1.403

Oc1c(Cl)c(Cl)c(Cl)c(Cl)c1Cl [pentachlorophenol]
Crystal
Conditions | vapor or sublimation pressure [kPa]
348.1 K | 0.00127
353.1 K | 0.00206
358 K | 0.00304
363 K | 0.00483
367.8 K | 0.00681
371.9 K | 0.00975
378.1 K | 0.01517
383 K | 0.02172
388.9 K | 0.03268
393.2 K | 0.04374
397.8 K | 0.06045
399.8 K | 0.07143
403.2 K | 0.09099

Oc1ccc(Cl)c(Cl)c1 [3,4-dichlorophenol]
Conditions | vapor or sublimation pressure [kPa]
291.4 K, Crystal | 0.00027
294.3 K, Crystal | 0.0004
300.3 K, Crystal | 0.00086
303.5 K, Crystal | 0.00121
306.7 K, Crystal | 0.00177
309.5 K, Crystal | 0.00247
314.3 K, Crystal | 0.00423
317.2 K, Crystal | 0.00587
320.4 K, Crystal | 0.00806
323.3 K, Crystal | 0.01069
326.3 K, Crystal | 0.01474
329.3 K, Crystal | 0.01992
332.3 K, Crystal | 0.02618
335.3 K, Crystal | 0.03423
337.3 K, Crystal | 0.04096
341.3 K, Liquid | 0.057
344.3 K, Liquid | 0.0703
347.2 K, Liquid | 0.0854
350.3 K, Liquid | 0.1055
353.2 K, Liquid | 0.127
356.3 K, Liquid | 0.1544
359.2 K, Liquid | 0.1858
362.2 K, Liquid | 0.223
365.4 K, Liquid | 0.2696
368.4 K, Liquid | 0.3217

Oc1c(Cl)cc(Cl)cc1Cl [2,4,6-trichlorophenol]
Conditions | vapor or sublimation pressure
299.4 K, Crystal | 0.00177 kPa
302.3 K, Crystal | 0.00245 kPa
305.2 K, Crystal | 0.00319 kPa
308.3 K, Crystal | 0.0044 kPa
311.3 K, Crystal | 0.00593 kPa
314.3 K, Crystal | 0.00805 kPa
316.8 K, Crystal | 0.01044 kPa and 0.01061 kPa
317.3 K, Crystal | 0.01125 kPa
320.3 K, Crystal | 0.015 kPa
323.3 K, Crystal | 0.02013 kPa
326.3 K, Crystal | 0.02645 kPa
329.4 K, Crystal | 0.03488 kPa
332.5 K, Crystal | 0.04531 kPa
335.5 K, Crystal | 0.05882 kPa
338.2 K, Crystal | 0.07513 kPa
340.3 K, Crystal | 0.08978 kPa
342.8 K, Liquid | 0.1027 kPa
343.2 K, Liquid | 0.1041 kPa
343.8 K, Liquid | 0.1081 kPa
345.2 K, Liquid | 0.1191 kPa
346.3 K, Liquid | 0.1271 kPa
347.3 K, Liquid | 0.1317 kPa
348.3 K, Liquid | 0.1419 kPa
348.9 K, Liquid | 0.1495 kPa
350.4 K, Liquid | 0.1613 kPa
351.4 K, Liquid | 0.1716 kPa
353.3 K, Liquid | 0.1898 kPa
353.9 K, Liquid | 0.1975 kPa
354.4 K, Liquid | 0.2102 kPa
356.4 K, Liquid | 0.2268 kPa
357.5 K, Liquid | 0.2519 kPa
359 K, Liquid | 0.2809 kPa
359.4 K, Liquid | 0.2784 kPa
360.5 K, Liquid | 0.2994 kPa
362.5 K, Liquid | 0.3322 kPa
363.2 K, Liquid | 0.3412 kPa
364.1 K, Liquid | 0.3663 kPa
365.5 K, Liquid | 0.3878 kPa
366.3 K, Liquid | 0.4095 kPa
368.1 K, Liquid | 0.4623 kPa
368.6 K, Liquid | 0.463 kPa
369.4 K, Liquid | 0.4939 kPa
372.4 K, Liquid | 0.5714 kPa
373.2 K, Liquid | 0.6103 kPa and 0.6087 kPa
375.4 K, Liquid | 0.6794 kPa

Oc1ccccc1Cl [2-chlorophenol]
Liquid
Conditions | vapor or sublimation pressure [kPa]
288.4 K | 0.0863
291.3 K | 0.1102
294.3 K | 0.1378
297.3 K | 0.1681
300.3 K | 0.2059
303.3 K | 0.2559
306.2 K | 0.3083
309.2 K | 0.3763
312.2 K | 0.4633
315.2 K | 0.5579
318.2 K | 0.6649
321.2 K | 0.7992

Oc1cccc(Cl)c1Cl [2,3-dichlorophenol]
Conditions | vapor or sublimation pressure [kPa]
294.3 K, Crystal | 0.0078
297.3 K, Crystal | 0.0107
300.2 K, Crystal | 0.0149
303.2 K, Crystal | 0.0192
306.2 K, Crystal | 0.0267
309.2 K, Crystal | 0.0351
312.2 K, Crystal | 0.0482
315.2 K, Crystal | 0.0633
318.1 K, Crystal | 0.0798
321.2 K, Crystal | 0.1081
324.3 K, Crystal | 0.1429
327.3 K, Crystal | 0.1835
331.2 K, Liquid | 0.2449
334.3 K, Liquid | 0.2946
337.2 K, Liquid | 0.3508
340.3 K, Liquid | 0.4132
343.2 K, Liquid | 0.4874
346.2 K, Liquid | 0.5745
349.2 K, Liquid | 0.6662
352.1 K, Liquid | 0.7881
355.2 K, Liquid | 0.9247
358.2 K, Liquid | 1.078

Reference: the NIST ThermoML archive (doi:10.1021/je060429r)
